Data on two molecules can be found in publication PMC3989846 (Malaria Journal, 2014).

Read-outs that look alike come from different tables or passages of the source.

Data set [1] can be described thus: Liver tissue distribution pharmacokinetics after single intravenous or intragastric dose. It counts as in vivo, male ICR mice. The conditions noted are these: for Kp: liver/plasma, read-out: AUCinf ratio (liver/plasma); for half-life: read-out: t1/2 elimination (converted). As for the experimental part: PK studies were performed using both intravenous (IV) and intragastric (IG) administration. For each time point to be acquired, three male ICR mice per time-point, aged seven weeks, were dosed at either PQ or TQ at 5 mg/kg (IV) or 20 mg/kg (IG). Drug vehicle for IV studies was 0.9% saline solution, and the formulated drugs were administered in a volume of 100 μL/20 g of body weight. For IG dosing, the drug vehicle was 0.5% HECT, administered at 100 μL/20 g. At each time point, plasma and liver samples were collected. Whole blood was collected by cardiac puncture. […] Following the separation of appropriate aliquots, plasma was obtained from the whole blood via centrifugation. All liquid and tissue samples were immediately preserved on dry ice and lately stored at -80°C until analytical work was performed.
Blank liver homogenate was prepared by adding 5 mL of water for each gram of liver, then the mixture was homogenized using an ultra-sonication probe (VCX 750, Sonics & Materials, Inc., Newtown, CT). […] The serial dilutions for analysis also included the preparation of 4–5 QC samples at a low range point and a high range point (generally 10 ng/mL and 100 ng/mL, respectively). Once the standard curve dilutions were prepared, a 100 μL aliquot was removed and extracted with 200 μL acetonitrile. The extracted samples were centrifuged at 10,000 rpm for 10 min and the supernatant was removed for analysis by LC-MS/MS. Sample drug concentrations were first interpolated from the standard curve, then multiplied by a factor of 6 to account for the drug levels present in the liver prior to dilution with water for homogenization.
Chromatography was performed using a Surveyor pump (Thermo Scientific, Waltham, MA) with Waters XTerra MS C18 50 mm × 2.1 mm id, 3.5 μm particle size columns (Waters Corp., Milford, MA). Mobile phase consisted of a water/0.1% formic acid (Solvent A)/acetonitrile/0.1% formic acid (Solvent B) gradient. […] Flow rate was 300 μL/min. Samples were injected using an HTC PAL autosampler (LEAP Technologies, Carrboro, NC). Tandem mass spectrometry was performed using a TSQ Quantum AM (Thermo Scientific).
Drug concentrations were generated for each sample taken from animals dosed with both test drugs. A measured plasma and liver drug concentration vs. time curve was produced, in graphic and tabular form, for each subject on both linear/linear and log/linear scales, for the parent compound. Mean plasma drug concentration vs. time curves were also prepared separately. For the determination of initial approach to PK parameters of TQ and PQ in plasma and liver tissues after systemic application, a non-compartmental analysis was performed using Phoenix (version 6.1; Pharsight Corp., Mountain View, CA). Maximum plasma and liver concentration (Cmax), and time to maximum concentration (tmax) of TQ and PQ were obtained from the plasma and liver drug concentration-time curves. The elimination half-life (t1/2) was calculated from In2/kel, which is the elimination rate constant calculated from the log concentration-time plot. The area under the curve (AUC) and the area under the first moment curve (AUMC) were determined by the linear trapezoidal rule with extrapolation to infinity based on the concentration of the last time point divided by the terminal rate constant. Mean clearance rate (CL) was determined by dividing the dose by the AUCinf for intravenous injection for plasma samples. Absolute bioavailability was calculated by taking the dose-corrected area under the curve (AUC) from non-intravenous dosing divided by the AUC derived from intravenous dosing. Mean residence time (MRT) was determined by dividing the area under the first moment curve (AUMC) by AUC. The volume of the central compartment (Vz) and volume of the tissue compartment (Vz/F) were calculated as the product of CL and MRT.

Details of data set [2]: method as in PMID 9598455. Conditions: simulated gastric fluid; cited from earlier work.
Details of data set [3]: method as in PMID 9598455. The conditions noted are these: cited from earlier work.
[4] abbreviates: male, ICR, mouse, po, intragastric 20 mg/kg, liver.
Setting [5] is: male, ICR, mouse, intravenous 5 mg/kg, liver.

The Cmax is the highest concentration seen after dosing. As a reminder, the MRT is a mean duration of stay, worked out from the concentration-time curve. The term Tmax denotes the time at which the peak concentration occurs. Regarding `COc1cc(C)c2c(Oc3cccc(C(F)(F)F)c3)c(OC)cc(NC(C)CCCN)c2n1` (stereo not drawn) [Tafenoquine, tafenoquine], the Cmax is 44800 ± 30000 ng/g in data set [1] (ICR, mouse, intravenous 5 mg/kg, liver, male mice (head: μg/mL or g), read-out: Cmax); 56.90 ± 26.09 µg/mL in data set [1] (intragastric 20 mg/kg, liver); 56900 ng/g in data set [1] (male, ICR, mouse, single oral dose 20 mg/kg, liver, read-out: Cmax). The “AUCinf ratio (liver/plasma)” value in data set [1] (intragastric 20 mg/kg) was found to be 48.91 ± 22.67; in data set [1] (intravenous 5 mg/kg, 5 mg/kg), 87.24 ± 44.29. This molecule also displayed an AUClast in data set [1] (intravenous 5 mg/kg, liver (μg · h/mL or g)) of 2493.82 ± 1361.10 µg·h/g. In addition, the AUCinfininty in data set [1] (intravenous 5 mg/kg, liver (μg · h/mL or g), 5 mg/kg) is 2544.96 ± 1348.03 µg·h/g; in data set [1] (intravenous 5 mg/kg, liver (μg · h/mL or g), listed as TQ, 5 mg/kg), 2544.96 µg·h/g. The Kp in data set [1] (male, ICR, mouse, po, intragastric 20 mg/kg) came out at 48.9; in data set [1] (male, ICR, mouse, intravenous 5 mg/kg) it was 87.2. For the same molecule, the mean residence time MRT in data set [1] (setting [4]) was 88.7 ± 13 h; in data set [1] (setting [5]) it was 66.1 ± 19.2 h. Further, the Tmax in data set [1] (setting [4]) was found to be 1.17 ± 0.76 h; in data set [1] (setting [5]), 3.69 ± 2.29 h. For the same molecule, the half-life in data set [1] (setting [4]) is 75.5 ± 12.1 h; in data set [1] (setting [5]) it was 70 ± 4.35 h. The “Cmax of orally dosed TQ, fold higher than PQ in liver tissue” value in data set [1] (oral, liver) is given as around 7 fold. Also, in data set [1] (oral, liver), the “elimination half-life of oral TQ, fold longer than oral PQ in the liver” value came out at 17.6 fold. The molecule also yielded an AUCinf in data set [1] (single oral dose 20 mg/kg, liver) of 5391.86 µg·h/g. The “time to complete dissolution” value in data set [2] is at most 30 min.
`COc1cc(NC(C)CCCN)c2ncccc2c1` (stereo not drawn) [Primaquine, primaquine]: in data set [3], the “dose excreted as unchanged drug in the urine” value is “less than 1%”.
